Laboratory results published in PubChem BioAssay (NCI).
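GI50 marks 50% less growth. Definition used: TGI = concentration required for complete inhibition of growth.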

Experiments:
Assay in all cases: NCI tumour cell line growth inhibition, 384-well format
RXF 393 renal = test system: RXF 393 renal
EKVX NSCLC = test system: EKVX NSCLC
SNB-75 CNS = test system: SNB-75 CNS
TK-10 renal = test system: TK-10 renal
HOP-92 NSCLC = test system: HOP-92 NSCLC
MDA-MB-468 breast = test system: MDA-MB-468 breast
ACHN renal = test system: ACHN renal
OVCAR-5 ovarian = test system: OVCAR-5 ovarian
MALME-3M melanoma = test system: MALME-3M melanoma
NCI-H23 lung = test system: NCI-H23 lung
IGROV1 ovarian = test system: IGROV1 ovarian
MDA-MB-435 melanoma = test system: MDA-MB-435 melanoma
CAKI-1 renal = test system: CAKI-1 renal
UO-31 renal = test system: UO-31 renal
HCT-15 colon = test system: HCT-15 colon
BT-549 breast = test system: BT-549 breast
UACC-257 melanoma = test system: UACC-257 melanoma
SK-OV-3 ovarian = test system: SK-OV-3 ovarian
HOP-62 NSCLC = test system: HOP-62 NSCLC
SF-268 CNS = test system: SF-268 CNS
MOLT-4 leukemia = test system: MOLT-4 leukemia
NCI-H226 lung = test system: NCI-H226 lung
SNB-19 CNS = test system: SNB-19 CNS
UACC-62 melanoma = test system: UACC-62 melanoma
SF-295 CNS = test system: SF-295 CNS
U251 glioblastoma = test system: U251 glioblastoma
SK-MEL-5 melanoma = test system: SK-MEL-5 melanoma
COLO 205 colon = test system: COLO 205 colon
HCT-116 colon = test system: HCT-116 colon
NCI-H322M lung = test system: NCI-H322M lung
SK-MEL-2 melanoma = test system: SK-MEL-2 melanoma
SN12C renal = test system: SN12C renal
HL-60(TB) leukemia = test system: HL-60(TB) leukemia
DU-145 prostate = test system: DU-145 prostate
SK-MEL-28 melanoma = test system: SK-MEL-28 melanoma
T-47D breast = test system: T-47D breast
K-562 leukemia = test system: K-562 leukemia
NCI-H522 lung = test system: NCI-H522 lung
A549 NSCLC = test system: A549 NSCLC
SW-620 colon = test system: SW-620 colon
MCF7 breast = test system: MCF7 breast
HT29 colon = test system: HT29 colon
KM12 colon = test system: KM12 colon
HS 578T breast = test system: HS 578T breast
NCI-H460 NSCLC = test system: NCI-H460 NSCLC
SF-539 CNS = test system: SF-539 CNS
SR leukemia = test system: SR leukemia
PC-3 prostate = test system: PC-3 prostate
OVCAR-3 ovarian = test system: OVCAR-3 ovarian
OVCAR-8 ovarian = test system: OVCAR-8 ovarian
A498 renal = test system: A498 renal
OVCAR-4 ovarian = test system: OVCAR-4 ovarian
M14 melanoma = test system: M14 melanoma
786-0 renal = test system: 786-0 renal
MDA-MB-231 breast = test system: MDA-MB-231 breast

CC(C)(C)C[C@H]1NC(C(=O)NCC[C@H](O)CO)[C@H](c2cccc(Cl)c2)[C@@]12C(=O)Nc1cc(Cl)c(F)cc12 (stereo not given in full)
GI50 (RXF 393 renal): 2.38 µM | TGI (RXF 393 renal): 15.3 µM | GI50 (EKVX NSCLC): 12.5 µM | TGI (EKVX NSCLC): 25 µM | GI50 (SNB-75 CNS): 10.9 µM | TGI (SNB-75 CNS): 22.9 µM | GI50 (TK-10 renal): 14.6 µM | TGI (TK-10 renal): 28.2 µM | GI50 (HOP-92 NSCLC): 14.7 µM | TGI (HOP-92 NSCLC): 27.8 µM | GI50 (MDA-MB-468 breast): 3.31 µM | TGI (MDA-MB-468 breast): 16.1 µM | GI50 (ACHN renal): 1.36 µM | TGI (ACHN renal): 10.6 µM | GI50 (OVCAR-5 ovarian): 15.9 µM | TGI (OVCAR-5 ovarian): 29.5 µM | GI50 (MALME-3M melanoma): 0.582 µM | TGI (MALME-3M melanoma): 14.7 µM | GI50 (NCI-H23 lung): 15 µM | TGI (NCI-H23 lung): 28.3 µM | GI50 (IGROV1 ovarian): 6.37 µM | TGI (IGROV1 ovarian): 20.2 µM | GI50 (MDA-MB-435 melanoma): 14.6 µM | TGI (MDA-MB-435 melanoma): 27.8 µM | GI50 (CAKI-1 renal): 0.605 µM | TGI (CAKI-1 renal): 11.7 µM | GI50 (UO-31 renal): 4.29 µM | TGI (UO-31 renal): 15.9 µM | GI50 (HCT-15 colon): 17.4 µM | TGI (HCT-15 colon): 31.5 µM | GI50 (BT-549 breast): 15.1 µM | TGI (BT-549 breast): 28.5 µM | GI50 (UACC-257 melanoma): 1.76 µM | TGI (UACC-257 melanoma): 5.36 µM | GI50 (SK-OV-3 ovarian): 13.9 µM | TGI (SK-OV-3 ovarian): 27.1 µM | GI50 (HOP-62 NSCLC): 16.5 µM | TGI (HOP-62 NSCLC): 30.2 µM | GI50 (SF-268 CNS): 16 µM | TGI (SF-268 CNS): 29.6 µM | GI50 (MOLT-4 leukemia): 0.181 µM | TGI (MOLT-4 leukemia): 0.341 µM | GI50 (NCI-H226 lung): 0.515 µM | TGI (NCI-H226 lung): 2.17 µM | GI50 (SNB-19 CNS): 15.8 µM | TGI (SNB-19 CNS): 29.4 µM | GI50 (UACC-62 melanoma): 0.591 µM | TGI (UACC-62 melanoma): 11.1 µM | GI50 (SF-295 CNS): 12.9 µM | TGI (SF-295 CNS): 25.6 µM | GI50 (U251 glioblastoma): 14.4 µM | TGI (U251 glioblastoma): 27.6 µM | GI50 (SK-MEL-5 melanoma): 2.79 µM | TGI (SK-MEL-5 melanoma): 16.4 µM | GI50 (COLO 205 colon): 15.8 µM | TGI (COLO 205 colon): 29.3 µM | GI50 (HCT-116 colon): 0.962 µM | TGI (HCT-116 colon): 13.8 µM | GI50 (NCI-H322M lung): 17.5 µM | TGI (NCI-H322M lung): 31.4 µM | GI50 (SK-MEL-2 melanoma): 14.6 µM | TGI (SK-MEL-2 melanoma): 27.7 µM | GI50 (SN12C renal): 17.1 µM | TGI (SN12C renal): 30.9 µM | GI50 (HL-60(TB) leukemia): 4.2 µM | TGI (HL-60(TB) leukemia): 16.5 µM | GI50 (DU-145 prostate): 15.8 µM | TGI (DU-145 prostate): 29.4 µM | GI50 (SK-MEL-28 melanoma): 16.7 µM | TGI (SK-MEL-28 melanoma): 30.4 µM | GI50 (T-47D breast): 11.7 µM | TGI (T-47D breast): 24 µM | GI50 (K-562 leukemia): 13.7 µM | TGI (K-562 leukemia): 27 µM | GI50 (NCI-H522 lung): 12.8 µM | TGI (NCI-H522 lung): 25.5 µM | GI50 (A549 NSCLC): 2.94 µM | TGI (A549 NSCLC): 14.1 µM | GI50 (SW-620 colon): 16.8 µM | TGI (SW-620 colon): 30.6 µM | GI50 (MCF7 breast): 0.243 µM | TGI (MCF7 breast): 1.77 µM | GI50 (HT29 colon): 15.8 µM | TGI (HT29 colon): 29.4 µM | GI50 (KM12 colon): 1.6 µM | TGI (KM12 colon): 12.8 µM | GI50 (HS 578T breast): 6.45 µM | TGI (HS 578T breast): 20.4 µM | GI50 (NCI-H460 NSCLC): 14.6 µM | TGI (NCI-H460 NSCLC): 27.9 µM | GI50 (SF-539 CNS): 13.4 µM | TGI (SF-539 CNS): 26.3 µM | GI50 (SR leukemia): 0.2 µM | TGI (SR leukemia): 0.394 µM | GI50 (PC-3 prostate): 13.1 µM | TGI (PC-3 prostate): 25.9 µM | GI50 (OVCAR-3 ovarian): 13.7 µM | TGI (OVCAR-3 ovarian): 26.7 µM | GI50 (OVCAR-8 ovarian): 16.4 µM | TGI (OVCAR-8 ovarian): 30.1 µM | GI50 (A498 renal): 1.12 µM | TGI (A498 renal): 11.7 µM | GI50 (OVCAR-4 ovarian): 11.9 µM | TGI (OVCAR-4 ovarian): 24.3 µM | GI50 (M14 melanoma): 10.3 µM | TGI (M14 melanoma): 22.1 µM | GI50 ([…]-0 renal): 15.6 µM | TGI (786-0 renal): 29 µM | GI50 (MDA-MB-231 breast): 16.2 µM | TGI (MDA-MB-231 breast): 29.8 µM
